Test results: patent US20050222106A1, “Drospirenone-containing preparations for transdermal use” (priority 2004, published 2005)
“Also recorded” adds a separate entry of the source.

Experiments:
[1] = Permeation through human skin from the preparation of Example 1; format: in vitro ADME
Procedure: (§1) 200 mg of the preparation made according to Example 1 were applied to bare mouse skin, which were fixed in modified Franz permeation cells as a permeation membrane. The results for the average permeation values for testosterone and drospirenone in μg/cm^2 versus time after application are shown in FIG. 1. The average values are the average of seven experimental runs. The mouse skin used was hairless mouse skin, HsdCpb NMRI-nu/nu, Harlan Bioservice, Walsrode.
(§2) Acceptable Medium for the Franz Cells:
(§3) At 3, 6, 9, 12, 15 and 18 hours samples of 100 μl were removed by an automatic sampling system from the acceptor medium of the Franz cells and injected into an HPLC automatic analyzer.
The preparation from example 1 was tested on human skin (female belly skin from cosmetic reduction, dermatomized at a layer thickness of about 450 μm).
The skin permeation values or mass transport amount for drospirenone and testosterone as a function of time after application of the preparation to the skin are shown in FIG. 2. The open squares indicate the measured permeation values for testosterone in […]. The open circles indicate the permeation values for drospirenone. The vertical lines on the circles and squares are error bars indicating the experimental error.

[2] = Permeation of bare mouse skin in modified Franz permeation cells; format: in vitro ADME; conditions: aqueous ethanolic vehicle (preparation of Example 1, 200 mg), FIG. 1, average of seven runs
Procedure: as §1, §2, §3
The filled-in circles indicate the measured permeation values for testosterone in FIG. 1. The filled-in squares indicate the permeation values for drospirenone. The vertical lines on the circles and squares are error bars indicating the experimental error.

Compound	Permeation values relative to those of testosterone ([1]; female, human)	Mean cumulative Transport ([1]; female, human, 0 h) [μg/cm^2]	Mean cumulative Transport ([1]; female, human, 3 h) [μg/cm^2]	Mean cumulative Transport ([1]; female, human, 7 h) [μg/cm^2]	Mean cumulative Transport ([1]; female, human, 10 h) [μg/cm^2]	Mean cumulative Transport ([1]; female, human, 24 h) [μg/cm^2]	Mean cumulative Transport ([1]; female, human, 30 h) [μg/cm^2]	Mean cumulative Transport ([1]; female, human, 48 h) [μg/cm^2]	Permeation of mouse skin in vitro compared with testosterone [2]	Mean cumulative Transport ([1]; human skin, preparation of Example 1, time 0 h) [μg/cm^2]	Mean cumulative Transport ([1]; human skin, preparation of Example 1, time 3 h) [μg/cm^2]	Mean cumulative Transport ([1]; human skin, preparation of Example 1, time 7 h) [μg/cm^2]	Mean cumulative Transport ([1]; human skin, preparation of Example 1, time 10 h) [μg/cm^2]	Mean cumulative Transport ([1]; human skin, preparation of Example 1, time 24 h) [μg/cm^2]	Mean cumulative Transport ([1]; human skin, preparation of Example 1, time 30 h) [μg/cm^2]	Mean cumulative Transport ([1]; human skin, preparation of Example 1, time 48 h) [μg/cm^2]
C[C@]12CCC(=O)C=C1[C@@H]1C[C@@H]1[C@H]1[C@@H]3[C@@H]4C[C@@H]4[C@@]4(CCC(=O)O4)[C@@]3(C)CC[C@@H]12 [Drospirenone, drospirenone]	about 40%	0.00	0.87	2.04	2.86	8.67	12.13	19.23	approximately the same good extent as testosterone; also recorded: permeation values for testosterone are larger than those for drospirenone	–	–	–	–	–	–	–
C[C@]12CC[C@H]3[C@@H](CCC4=CC(=O)CC[C@@]43C)[C@@H]1CC[C@@H]2O [Testosterone]	–	–	–	–	–	–	–	–	–	0.00	3.62	7.72	10.70	26.57	33.31	44.35
